Results as given in patent publication US7638517B2, “3-Amino-1-arylpropyl azaindoles and uses thereof” (Roche Palo Alto LLC, priority 2005, dated 2009).

How the values were obtained:
[1] = molecular target: T1, human serotonin transporter (hSERT) (Homo sapiens, UniProt P31645); assay: Screening for human serotonin transporter (hSERT) antagonists using a scintillation proximity assay, competition with [3H]-Citalopram; type: binding; details: hSERT SPA, membranes of HEK-293 cells expressing recombinant hSERT
T1 construct: expressed in transfected cells; host or cells: HEK-293
T1 sequence (P31645 whole entry): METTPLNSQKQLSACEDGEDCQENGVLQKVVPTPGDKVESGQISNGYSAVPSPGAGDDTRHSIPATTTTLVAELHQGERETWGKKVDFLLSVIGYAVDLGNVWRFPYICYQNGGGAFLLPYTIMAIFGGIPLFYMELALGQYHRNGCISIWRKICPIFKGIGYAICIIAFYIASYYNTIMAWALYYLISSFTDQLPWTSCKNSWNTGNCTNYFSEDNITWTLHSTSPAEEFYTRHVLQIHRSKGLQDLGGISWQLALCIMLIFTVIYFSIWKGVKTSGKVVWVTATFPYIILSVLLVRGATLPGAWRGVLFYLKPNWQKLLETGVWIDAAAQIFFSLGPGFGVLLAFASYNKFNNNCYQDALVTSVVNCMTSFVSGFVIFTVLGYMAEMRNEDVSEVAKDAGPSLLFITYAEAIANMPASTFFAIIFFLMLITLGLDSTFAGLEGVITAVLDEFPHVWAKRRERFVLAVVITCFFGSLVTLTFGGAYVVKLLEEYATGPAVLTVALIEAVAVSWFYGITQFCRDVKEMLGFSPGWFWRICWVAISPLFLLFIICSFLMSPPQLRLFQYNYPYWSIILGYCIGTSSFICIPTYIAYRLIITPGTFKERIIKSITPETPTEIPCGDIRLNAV
Description: The screening assay of this example was used to determine the affinity of ligands at the hSERT transporter by competition with [^3H]-Citalopram.
Scintillation Proximity Assay (SPA) works by bringing radioligand within close proximity to the bead's scintillant to stimulate light emission. In this assay, the receptor-containing membranes were pre-coupled to the SPA beads and the binding of the appropriate radioligand to the transporter was measured. The light emission was proportional to the amount of bound radioligand. Unbound radioligand produced no signal as a result of distant proximity to scintillant (lack of energy transfer). […]
(§1) Cell membranes were prepared using a membrane preparation buffer of 50 mM TRIS (pH 7.4). […] After a second centrifugation, the pellet was re-homogenized and brought to a final volume determined during the assay. […]
The % inhibition was calculated for each compound tested [(Compound counts per minute (CPM) at maximum concentration-Non-Specific CPM)/Total CPM*100]. […]
[formula] where max=total binding, min=non specific binding, x=concentration (M) of the tested compound and n=Hill slope. The inhibition dissociation constant (Ki) of each compound was determined according to the method of Cheng-Prusoff and then converted into negative logarithm (pKi) of the Ki.

[2] = molecular target: T2, human norepinephrine transporter (hNET) (Homo sapiens, UniProt P23975); assay: Screening for compounds active at human norepinephrine transporter (hNET) using a scintillation proximity assay, competition with [3H]-Nisoxetine; type: binding; details: hNET SPA, membranes of HEK-293 cells expressing recombinant hNET
T2 construct: expressed in transfected cells; host or cells: HEK-293 (Clone: HEK-hNET #2)
T2 sequence (P23975 whole entry): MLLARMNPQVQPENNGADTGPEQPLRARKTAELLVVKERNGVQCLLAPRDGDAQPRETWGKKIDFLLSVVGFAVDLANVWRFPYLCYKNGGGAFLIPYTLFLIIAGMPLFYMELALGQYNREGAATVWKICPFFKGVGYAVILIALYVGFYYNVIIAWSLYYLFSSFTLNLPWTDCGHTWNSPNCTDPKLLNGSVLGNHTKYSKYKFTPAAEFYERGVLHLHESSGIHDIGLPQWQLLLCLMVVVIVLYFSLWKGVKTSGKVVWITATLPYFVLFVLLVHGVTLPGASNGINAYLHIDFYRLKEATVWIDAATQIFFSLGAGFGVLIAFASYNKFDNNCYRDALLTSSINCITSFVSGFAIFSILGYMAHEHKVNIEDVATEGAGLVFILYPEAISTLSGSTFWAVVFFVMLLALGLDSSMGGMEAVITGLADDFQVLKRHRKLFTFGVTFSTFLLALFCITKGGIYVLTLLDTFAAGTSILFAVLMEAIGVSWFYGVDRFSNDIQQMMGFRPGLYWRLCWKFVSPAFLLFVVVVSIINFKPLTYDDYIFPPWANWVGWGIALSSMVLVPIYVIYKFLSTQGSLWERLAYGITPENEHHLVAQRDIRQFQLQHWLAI
Description: This assay was used to determine the affinity of ligands for the hNET transporter by competition with [^3H]-Nisoxetine. As in the hSERT assay of the above example, receptor-containing membranes were pre-coupled to the SPA beads and the binding of the appropriate radioligand to the transporter was measured. The light emission was proportional to the amount of bound radioligand, with unbound radioligand producing no signal.
HEK-293 cells (Tatsumi et al., Eur. J. Pharmacol. 1997, 30, 249-258) stably expressing recombinant hNET (Clone: HEK-hNET #2) were maintained with media (DMEM hi glucose with 10% FBS, 300 μg/ml G418 and 2 mM L-Glutamine) and incubated at 37° C. with 5% CO2. Cells were released from culture flasks using PBS for 1-2 minutes. […]
as §1
^3[H] […] The mixtures were allowed to stand at room temperature for one hour, and were then counted on a Packard TopCount LCS, a generic SPA counting protocol settings (Energy Range: Low, Efficiency Mode: Normal, Region A: 1.50-35.00, Region B: 1.50-256.00, Count Time (min.): 0.40, Background Subtract: none, Half-Life Correction: no, Quench Indicator: tSIS, Platemap blank subtraction: No, Cross talk reduction: Off). […]

IC50 [1]: ~1.78 nM | IC50 [2]: ~17.8 nM
SMILES: CNCC[C@@H](c1ccccc1)c1c[nH]c2nccc(OC)c12 [compound 23, [(S)-3-(4-Methoxy-1H-pyrrolo[2,3-b]pyridin-3-yl)-3-phenyl-propyl]-methyl-amine]
